For one assay, the target named is T1, KAT6A (Homo sapiens, UniProt Q92794).
T1 construct: His-TEV tag (N, cleaved yes); made in house
Description: KAT6A enzyme inhibition assay (SAMDI mass spectrometry). It counts as biochemical. The conditions noted are these: His-TEV-KAT6A 501-784 enzyme construct.

In the next assay the target is T2, KAT5 (Homo sapiens, UniProt Q92993).
T2 construct: His-TEV tag (N, cleaved yes); made in house
Description: KAT5 enzyme inhibition assay (SAMDI mass spectrometry). It counts as biochemical. The conditions noted are these: His-TEV-FL KAT5-Flag enzyme construct.

T1 sequence (Q92794 with tags, fused parts or gaps): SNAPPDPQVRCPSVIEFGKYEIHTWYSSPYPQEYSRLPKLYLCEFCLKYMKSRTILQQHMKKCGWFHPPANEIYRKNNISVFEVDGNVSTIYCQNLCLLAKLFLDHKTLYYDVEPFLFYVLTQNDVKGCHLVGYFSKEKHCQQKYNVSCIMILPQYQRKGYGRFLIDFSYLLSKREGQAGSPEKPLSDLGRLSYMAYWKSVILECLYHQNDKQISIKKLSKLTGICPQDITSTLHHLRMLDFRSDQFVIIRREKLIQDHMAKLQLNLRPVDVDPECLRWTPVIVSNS
T2 sequence (Q92993 with tags, fused parts or gaps): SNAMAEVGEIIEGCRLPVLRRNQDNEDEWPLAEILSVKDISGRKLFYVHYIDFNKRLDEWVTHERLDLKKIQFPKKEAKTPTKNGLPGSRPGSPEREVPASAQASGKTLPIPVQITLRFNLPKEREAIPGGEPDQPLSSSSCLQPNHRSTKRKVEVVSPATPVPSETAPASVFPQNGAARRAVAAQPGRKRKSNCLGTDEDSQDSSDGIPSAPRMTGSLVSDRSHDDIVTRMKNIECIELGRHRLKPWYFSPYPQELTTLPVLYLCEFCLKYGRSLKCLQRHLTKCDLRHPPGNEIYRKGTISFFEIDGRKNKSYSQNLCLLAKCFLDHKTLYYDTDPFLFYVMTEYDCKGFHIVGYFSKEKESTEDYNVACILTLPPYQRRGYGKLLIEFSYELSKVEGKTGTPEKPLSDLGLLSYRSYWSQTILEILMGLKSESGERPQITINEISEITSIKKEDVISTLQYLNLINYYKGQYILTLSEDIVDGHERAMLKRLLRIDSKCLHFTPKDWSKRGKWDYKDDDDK

As to `CNCCC(=O)N1CCCC(CS(=O)(=O)NNC(=O)c2cc(-c3ccccc3)cc(C)c2F)C1` (stereo not shown) [Compound I-333], the half-maximal inhibitory concentration (IC50) at KAT6A and against KAT5 was 10 to 50 µM throughout.

On to `Cc1cc(-c2ccccc2)cc(C(=O)NNS(=O)(=O)c2cccc(F)c2)c1F` [Compound I-214], for which the IC50 against KAT6A and against KAT5 was no more than 10 µM each time.

Consider `Cc1cc(-c2ccccc2)cc(C(=O)NNS(=O)(=O)CC2CNCCO2)c1F` (stereo not shown) [Compound I-426], for which the 50% inhibitory concentration (IC50) – broadly, the concentration that inhibits the measured activity by half – against KAT6A is no more than 10 µM; at KAT5, 10 to 50 µM.

`Cn1cnc2cc(-c3ccccc3)cc(C(=O)NNS(=O)(=O)C3CCCCC3)c21` [Compound I-441]: the IC50 at KAT6A and against KAT5 was greater than 100 µM throughout.

Regarding `CC(C)(C)OC(=O)N1CCC(S(=O)(=O)NNC(=O)c2cc(Cl)cc(Cl)c2F)CC1` [Compound I-405], the values for the IC50 against KAT6A and on KAT5 were greater than 100 µM and 10 to 50 µM, respectively.

Take `Cc1cc(-c2ccccc2)cc(C(=O)NNS(=O)(=O)C2CC2)c1F` [Compound I-4]: the 50% inhibitory concentration (IC50) at KAT6A and on KAT5 was 50 to 100 µM each time.

As to `COc1ccccc1-c1cc(C)c(F)c(C(=O)NNS(=O)(=O)C2CCCCC2)c1` [Compound I-302], the IC50 at KAT6A and against KAT5 was 50 to 100 µM throughout.

Take `Cc1cc(-c2ccccc2)cc(C(=O)Nc2cn[nH]c2)c1F` [Compound I-213]: the IC50 on KAT6A and against KAT5 was greater than 100 µM throughout.

Turning to `O=C(NNS(=O)(=O)CC1CCCN(C(=O)C2CCC2)C1)c1cc(-c2cccc(F)c2)cc(Cl)c1F` (stereo not shown) [Compound I-417], the IC50 at KAT6A and against KAT5 was no more than 10 µM each time.

For `CC(=O)N1CC(CS(=O)(=O)NNC(=O)c2cc(-c3ccccc3)cc(C)c2F)C1` [Compound I-303], the IC50 on KAT6A is no more than 10 µM; at KAT5 it was 10 to 50 µM.

With `Cc1nc(-c2ccccc2)cc(C(=O)NNS(=O)(=O)C2CCCCC2)c1F` [Compound I-288], the IC50 against KAT6A and against KAT5 was 10 to 50 µM each time.

Regarding `COc1cc(C)c(F)c(C(=O)NNS(=O)(=O)C2CCCCC2)c1` [Compound I-391], the figures for the concentration for half-maximal inhibition (IC50) at KAT6A and against KAT5 were greater than 100 µM and no more than 10 µM, respectively.

For `Cc1cc(-c2ccccc2)cc(C(=O)NNS(=O)(=O)C2CCCCC2)c1F` [Compound I-18], the 50% inhibitory concentration (IC50) against KAT6A and against KAT5 was no more than 10 µM in each case.

Regarding `O=C(NNC(=O)c1ccccc1F)c1ccccc1` [Compound I-138], the IC50 against KAT6A and at KAT5 was greater than 100 µM each time.

Take `COCCN1CCCC(CS(=O)(=O)NNC(=O)c2cc(-c3ccccc3)cc(C)c2F)C1` (stereo not shown) [Compound I-297]: the half-inhibitory concentration (IC50) was no more than 10 µM on KAT6A and 10 to 50 µM at KAT5.

On to `Cc1c(-c2ccccc2)ccc(F)c1C(=O)NNS(=O)(=O)c1ccccc1Cl` [Compound I-225], for which the half-inhibitory concentration (IC50) against KAT6A is 10 to 50 µM; at KAT5, 50 to 100 µM.

For `Cc1cc(-c2ccccc2)cc(C(=O)NNS(=O)(=O)c2cccc(C(=O)N(C)C)c2)c1F` [Compound I-255], the concentration for half-maximal inhibition (IC50) against KAT6A and against KAT5 was no more than 10 µM each time.

On to `O=C(NNS(=O)(=O)c1ccccc1)c1cccc(-c2ccccc2)c1` [Compound I-144], for which the IC50 at KAT6A was no more than 10 µM; on KAT5, greater than 100 µM.

Regarding `O=C(NC1CCC1)c1cc(Cl)c(F)c(C(=O)NNS(=O)(=O)C2CCCCC2)c1` [Compound I-473], the half-maximal inhibitory concentration (IC50) at KAT6A and at KAT5 was greater than 100 µM throughout.

As for `CNC(=O)CCNC(=O)c1cc(Cl)c(F)c(C(=O)NNS(=O)(=O)C2CCCCC2)c1` [Compound I-474], the IC50 at KAT6A and at KAT5 was greater than 100 µM each time.

On to `COc1ccc(S(=O)(=O)NNC(=O)c2c(F)ccc(-c3ccccc3)c2C)cc1` [Compound I-186], for which the IC50 against KAT6A is 10 to 50 µM; at KAT5, 50 to 100 µM.

`Cc1cc(-c2ccccc2)cc(C(=O)NNS(=O)(=O)c2cccnc2)c1F` [Compound I-175]: the 50% inhibitory concentration (IC50) against KAT6A and on KAT5 was no more than 10 µM throughout.

For the molecule `O=C(NNS(=O)(=O)c1cccc(Cl)c1)c1c(F)ccc(Cl)c1F` [Compound I-198], the figures for the half-inhibitory concentration (IC50) on KAT6A and against KAT5 were no more than 10 µM and 50 to 100 µM, respectively.

On to `O=S(=O)(NNc1nc2ccccc2[nH]1)c1ccccc1` [Compound I-12], for which the IC50 against KAT6A and against KAT5 was greater than 100 µM in each case.

As for `Cc1cc(-c2ccccc2)cc(C(=O)NNS(=O)(=O)C2CN(C(=O)c3ccccc3)C2)c1F` [Compound I-34], the half-inhibitory concentration (IC50) at KAT6A and on KAT5 was 10 to 50 µM in each case.

Turning to `Cc1cc(-c2cccc(C(=O)OCc3ccccc3)c2)cc(C(=O)NNS(=O)(=O)c2ccccc2)c1F` [Compound I-449], the concentration for half-maximal inhibition (IC50) against KAT6A and on KAT5 was 50 to 100 µM in each case.

On to `Cc1cc(-c2ccccc2)cc(C(=O)NNS(=O)(=O)C2CCC2)c1F` [Compound I-7], for which the half-maximal inhibitory concentration (IC50) against KAT6A and against KAT5 was 10 to 50 µM in each case.

As to `CNC(=O)c1cccc(-c2cc(C)c(F)c(C(=O)NNS(=O)(=O)CC3CCCCC3)c2)c1` [Compound I-433], the figures for the concentration for half-maximal inhibition (IC50) at KAT6A and against KAT5 were 10 to 50 µM and no more than 10 µM, respectively.

Consider `Cc1cc(-c2ccccc2)cc(C(=O)N(C)NS(=O)(=O)c2ccccc2)c1F` [Compound I-215], for which the IC50 against KAT6A is 10 to 50 µM; at KAT5, greater than 100 µM.

These data come from patent US20220267260A1, “COMPOUNDS CONTAINING A SULFONIC GROUP AS KAT INHIBITORS” (Epizyme, Inc., priority 2016, published 2022).
